Test system: Musca domestica
Assay: House fly surface repellent bioassay (treated floor tile bait stations)
Assay type: in vivo
Settings: house flies
Experimental: 100 adult house flies (Musca domestica) were placed into the assay then exposed to treated bait stations, a control and test treatment. Fly response to the bait stations were recorded at predetermined time points with a video camera. Percent repellency was calculated and comparisons between treatments were made. All test house fly specimens were taken from in-house laboratory reared colonies, and were confirmed alive and in good condition prior to testing. No specimens showing any visible signs of stress, physical damage or pathogen infection were used in the study. When applicable a 1:1 male to female sex ratio was used to ensure equal susceptibility. The test arena was assembled and prepared prior to test initiation. The test arena consisted of a large 73.66 cm×73.66 cm×73.66 cm PVC frame work fitted with Thrips screening. At the top of the enclosed arena a USB powered video camera was suspended and centered over a 62.87 cm×62.87 cm section of white ceiling tile divided (marked with pencil) into equal quadrants. The bait stations were constructed as follows: A 1⁄4'' diameter hole was drilled in the center of a 10.8 cm by 10.8 cm white glazed clay tile. A 50 ml Falcon tube cap was affixed to the bottom of the tile over the hole to create a reservoir for the bait to be contained. Bait was pipetted into the reservoir then a cotton wick in inserted into the hole preventing flies from entering the reservoir and allowing bait to wick to the surface. The bait was at a 4:1:1 ratio of water, sugar, and coffee creamer. The chemical application method was as follows: Material was pipette applied to tile surface and allowed approximately 1 hour to dry. The chemical volume applied was 34 μl. Fly specimens were exposed for 24 hours. Assays were performed with a minimum of three replicates. The Tyra Tech Insect repellent surface cleaning/washing composition was comprised of 14.8% Active Ingredient (AI) blend and 85.2% other ingredients. It was confirmed that video cameras were appropriately viewing the center of the ceiling tile with a computer and computer program (such as […]). Flies were anesthetized with CO2 and then 100 flies were placed into a clean container. Insects were allowed to recover and acclimate to testing conditions for 1 hour prior to test initiation by placing and opening container with flies into assembled assay arena and allowing flies to disperse. All surfaces of bait station were cleaned with ethanol and allowed to dry. A pipette were used to treat the tile surface with the test material and treatment was spread over entire surface with pipette tip; material was allowed to dry for approximately 1 hour prior to test initiation. When dry, 5 ml of bait was pipetted into the reservoir. A cotton wick was inserted into the hole to ensuring that the top of the wick sits flush with the tile surface. A treated and a control bait station was placed into the test arena, one each centered within a randomly designated quadrant opposite of each other into a testing arena. Cameras were allowed to capture fly response over a 24 hour time period. Images were transferred to computer and data were analyzed. Photos were taken at each of the following time points: 15 minutes, 30 minutes, 1, 2, 3, 4, 5, 6, 7, 8, 12, 18 and 24 hours post introduction of treatment. At the conclusion of the test the image files were reviewed and the number of flies at each bait station was counted and recorded for both treatment and control. Average percent repellency was used as a standard measure of repellency of the treatments against insect species. Percent repellency was calculated for each treatment replicate by the following formula: Mean percent repellency for each treatment based on the data of the replicates at the given observation time points: Repellency between treatments was then compared using SAS version 9.3 to calculate the repeated measures ANOVA with time as repeated measure. Tukey's correction was used to ensure a remained at 0.05.

CCN(CC)C(=O)c1cccc(C)c1 [DEET]
Average mean percent repellency over 24 hours: 57.1%
Median mean percent repellency over 24 hours: 61.3%
statistical comparison of repellency between treatments (repeated measures ANOVA, Tukey's correction): significantly less repellent than any other treatment
mean percent repellency (time 0.25 h post introduction): 66.7%
mean percent repellency (time 1 h): 75.0%
mean percent repellency (time 2 h): 0.0%
mean percent repellency (time 3 h): 50.0%
mean percent repellency (time 4 h): 50.0%
mean percent repellency (time 5 h): 62.5%
mean percent repellency (time 6 h): 22.2%
mean percent repellency (time 7 h): 60.0%
mean percent repellency (time 8 h): 70.6%
mean percent repellency (time 12 h): 44.4%
mean percent repellency (time 18 h): 83.3%
mean percent repellency (time 24 h): 100.0%
